# According to PubChem BioAssay (NCI):
#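 In this assay, cells in 96-well plates receive the compound at five concentrations for 48 hours. Endpoints are linearly interpolated between the surrounding concentrations. TGI is the concentration that stops growth completely.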
# How the values were obtained:
# Assay in all cases: NCI-60 cell line screen, 48 h
# 786-0 renal = system: 786-0 renal
# SK-MEL-2 melanoma = system: SK-MEL-2 melanoma
# SK-OV-3 ovarian = system: SK-OV-3 ovarian
# DU-145 prostate = system: DU-145 prostate
# MALME-3M melanoma = system: MALME-3M melanoma
# TK-10 renal = system: TK-10 renal
# SF-268 CNS = system: SF-268 CNS
# T-47D breast = system: T-47D breast
# HT29 colon = system: HT29 colon
# HOP-62 NSCLC = system: HOP-62 NSCLC
# NCI/ADR-RES ovarian = system: NCI/ADR-RES ovarian
# NCI-H23 lung = system: NCI-H23 lung
# OVCAR-8 ovarian = system: OVCAR-8 ovarian
# BT-549 breast = system: BT-549 breast
# UACC-62 melanoma = system: UACC-62 melanoma
# K-562 leukemia = system: K-562 leukemia
# NCI-H522 lung = system: NCI-H522 lung
# HS 578T breast = system: HS 578T breast
# SNB-19 CNS = system: SNB-19 CNS
# OVCAR-5 ovarian = system: OVCAR-5 ovarian
# MOLT-4 leukemia = system: MOLT-4 leukemia
# SF-295 CNS = system: SF-295 CNS
# CCRF-CEM leukemia = system: CCRF-CEM leukemia
# HCT-15 colon = system: HCT-15 colon
# HL-60(TB) leukemia = system: HL-60(TB) leukemia
# A549 NSCLC = system: A549 NSCLC
# UO-31 renal = system: UO-31 renal
# SW-620 colon = system: SW-620 colon
# NCI-H226 lung = system: NCI-H226 lung
# SF-539 CNS = system: SF-539 CNS
# U251 CNS = system: U251 CNS
# UACC-257 melanoma = system: UACC-257 melanoma
# MDA-MB-231 breast = system: MDA-MB-231 breast
# OVCAR-3 ovarian = system: OVCAR-3 ovarian
# RPMI-8226 leukemia = system: RPMI-8226 leukemia
# SK-MEL-5 melanoma = system: SK-MEL-5 melanoma
# RXF 393 renal = system: RXF 393 renal
# SN12C renal = system: SN12C renal
# SR leukemia = system: SR leukemia
# CAKI-1 renal = system: CAKI-1 renal
# IGROV1 ovarian = system: IGROV1 ovarian
# MDA-MB-435 = system: MDA-MB-435
# A498 renal = system: A498 renal
# OVCAR-4 ovarian = system: OVCAR-4 ovarian
# PC-3 prostate = system: PC-3 prostate
# KM12 colon = system: KM12 colon
# HCT-116 colon = system: HCT-116 colon
# EKVX NSCLC = system: EKVX NSCLC
# M14 melanoma = system: M14 melanoma
# LOX IMVI melanoma = system: LOX IMVI melanoma
# ACHN renal = system: ACHN renal
# NCI-H460 lung = system: NCI-H460 lung
# COLO 205 colon = system: COLO 205 colon
# SK-MEL-28 melanoma = system: SK-MEL-28 melanoma
# HOP-92 NSCLC = system: HOP-92 NSCLC
# MCF7 breast = system: MCF7 breast
# SNB-75 CNS = system: SNB-75 CNS
# HCC-2998 colon = system: HCC-2998 colon
structure (smiles),measurement,setting,value
O=C(NC1CCN(Cc2ccccc2)CC1)c1cccc(I)c1,TGI,786-0 renal,57.8 µM
same,TGI,SK-MEL-2 melanoma,38.5 µM
same,TGI,SK-OV-3 ovarian,42.8 µM
same,TGI,DU-145 prostate,> 100 µM
same,TGI,MALME-3M melanoma,32.5 µM
same,TGI,TK-10 renal,65.2 µM
same,TGI,SF-268 CNS,> 100 µM
same,TGI,T-47D breast,61 µM
same,TGI,HT29 colon,43.7 µM
same,TGI,HOP-62 NSCLC,30.6 µM
same,TGI,NCI/ADR-RES ovarian,> 100 µM
same,TGI,NCI-H23 lung,63.3 µM
same,TGI,OVCAR-8 ovarian,> 100 µM
same,TGI,BT-549 breast,> 100 µM
same,TGI,UACC-62 melanoma,40.1 µM
same,TGI,K-562 leukemia,> 100 µM
same,TGI,NCI-H522 lung,32.9 µM
same,TGI,HS 578T breast,83 µM
same,TGI,SNB-19 CNS,> 100 µM
same,TGI,OVCAR-5 ovarian,> 100 µM
same,TGI,MOLT-4 leukemia,> 100 µM
same,TGI,SF-295 CNS,33.8 µM
same,TGI,CCRF-CEM leukemia,> 100 µM
same,TGI,HCT-15 colon,35.6 µM
same,TGI,HL-60(TB) leukemia,> 100 µM
same,TGI,A549 NSCLC,> 100 µM
same,TGI,UO-31 renal,31.6 µM
same,TGI,SW-620 colon,30.9 µM
same,TGI,NCI-H226 lung,78.1 µM
same,TGI,SF-539 CNS,51.6 µM
same,TGI,U251 CNS,56.2 µM
same,TGI,UACC-257 melanoma,33.2 µM
same,TGI,MDA-MB-231 breast,32.1 µM
same,TGI,OVCAR-3 ovarian,> 100 µM
same,TGI,RPMI-8226 leukemia,69.2 µM
same,TGI,SK-MEL-5 melanoma,31.2 µM
same,TGI,RXF 393 renal,> 100 µM
same,TGI,SN12C renal,> 100 µM
same,TGI,SR leukemia,80.3 µM
same,TGI,CAKI-1 renal,54.5 µM
same,TGI,IGROV1 ovarian,> 100 µM
same,TGI,MDA-MB-435,34.9 µM
same,TGI,A498 renal,> 100 µM
same,TGI,OVCAR-4 ovarian,> 100 µM
same,TGI,PC-3 prostate,> 100 µM
same,TGI,KM12 colon,33.6 µM
same,TGI,HCT-116 colon,28.9 µM
same,TGI,EKVX NSCLC,> 100 µM
same,TGI,M14 melanoma,30.9 µM
same,TGI,LOX IMVI melanoma,37.8 µM
same,TGI,ACHN renal,> 100 µM
same,TGI,NCI-H460 lung,63.7 µM
same,TGI,COLO 205 colon,32.5 µM
same,TGI,SK-MEL-28 melanoma,37.4 µM
same,TGI,HOP-92 NSCLC,62.7 µM
CC(=O)N(C)c1cc(NCc2ccccc2)ccc1OCc1ccccc1,TGI,786-0 renal,76.6 µM
same,TGI,SK-MEL-2 melanoma,30.8 µM
same,TGI,SK-OV-3 ovarian,43.1 µM
same,TGI,DU-145 prostate,32.7 µM
same,TGI,MALME-3M melanoma,35.3 µM
same,TGI,TK-10 renal,33.5 µM
same,TGI,SF-268 CNS,30.4 µM
same,TGI,T-47D breast,> 100 µM
same,TGI,HT29 colon,43 µM
same,TGI,HOP-62 NSCLC,> 100 µM
same,TGI,NCI/ADR-RES ovarian,44.8 µM
same,TGI,NCI-H23 lung,57.1 µM
same,TGI,OVCAR-8 ovarian,32.7 µM
same,TGI,BT-549 breast,40.3 µM
same,TGI,UACC-62 melanoma,31.8 µM
same,TGI,K-562 leukemia,63.5 µM
same,TGI,NCI-H522 lung,34 µM
same,TGI,HS 578T breast,91 µM
same,TGI,SNB-19 CNS,35.8 µM
same,TGI,OVCAR-5 ovarian,38.3 µM
same,TGI,MOLT-4 leukemia,50.4 µM
same,TGI,SF-295 CNS,29.6 µM
same,TGI,CCRF-CEM leukemia,45 µM
same,TGI,HCT-15 colon,39.2 µM
same,TGI,HL-60(TB) leukemia,77.9 µM
same,TGI,A549 NSCLC,36.7 µM
same,TGI,UO-31 renal,28 µM
same,TGI,SW-620 colon,56.5 µM
same,TGI,NCI-H226 lung,35.9 µM
same,TGI,SF-539 CNS,32 µM
same,TGI,U251 CNS,32.9 µM
same,TGI,UACC-257 melanoma,31.1 µM
same,TGI,MDA-MB-231 breast,30.2 µM
same,TGI,OVCAR-3 ovarian,32.8 µM
same,TGI,SK-MEL-5 melanoma,33.8 µM
same,TGI,RXF 393 renal,28.6 µM
same,TGI,SN12C renal,33.1 µM
same,TGI,SR leukemia,32.8 µM
same,TGI,CAKI-1 renal,38.6 µM
same,TGI,IGROV1 ovarian,30.5 µM
same,TGI,MCF7 breast,35.2 µM
same,TGI,MDA-MB-435,32.2 µM
same,TGI,A498 renal,30.8 µM
same,TGI,OVCAR-4 ovarian,36.6 µM
same,TGI,KM12 colon,47.4 µM
same,TGI,HCT-116 colon,> 100 µM
same,TGI,SNB-75 CNS,41.5 µM
same,TGI,EKVX NSCLC,42.3 µM
same,TGI,M14 melanoma,50.5 µM
same,TGI,LOX IMVI melanoma,36.2 µM
same,TGI,HCC-2998 colon,35 µM
same,TGI,ACHN renal,36.5 µM
same,TGI,NCI-H460 lung,33.4 µM
same,TGI,COLO 205 colon,54.8 µM
same,TGI,SK-MEL-28 melanoma,35.4 µM
same,TGI,HOP-92 NSCLC,30 µM
